Converted amounts (≈) assume the structure as drawn. “Also recorded” adds a separate entry of the source.
Legend:
Solubilities = format: physicochemical; details: solvents named in the value
[1] = test system: Bacilus subtilis ATCC 10707; assay: antibacterial activity by agar dilution method; format: cell-based; details: pH 7.0
Description: (§1) The antibacterial activity of the compound S551-II-A against various microorganism by agar dilution method (pH 7.0) is shown in Table 2.

[2] = test system: Escherichia coli ATCC 3655; assay: antibacterial activity by agar dilution method; format: cell-based; details: ATCC3655, pH 7.0
Description: as §1

[3] = test system: Klebsiella pneumoniae ATCC 10031; assay: antibacterial activity by agar dilution method; format: cell-based; details: ATCC10031, pH 7.0
Description: as §1

[4] = test system: Staphylococcus aureus ATCC 6538P; assay: antibacterial activity by agar dilution method; format: cell-based; details: ATCC6538P, pH 7.0
Description: as §1

[5] = test system: Proteus vulgaris ATCC 6897; assay: antibacterial activity by agar dilution method; format: cell-based; details: ATCC6897, pH 7.0
Description: as §1

Saccharomyces rouxii M-9 = assay: antibacterial activity by disc method; format: cell-based; details: Zygosaccharomyces rouxii, M9, pH: no adjustment
Description: (§2) The antibacterial activity of the compound S551-II against various microorganisms by disc method (pH: no adjustment) is shown in the following Table 1.

[6] = test system: Aspergillus niger ATCC 6275; assay: antibacterial activity by disc method; format: cell-based; details: ATCC6275, pH: no adjustment
Description: as §2

[7] = test system: Cladosporium herbarum Link Fr IAM 5059; assay: antibacterial activity by disc method; format: cell-based; details: IAM5059, pH: no adjustment
Description: as §2

[8] = test system: Aspergillus oryzae NRRL 692; assay: antibacterial activity by disc method; format: cell-based; details: NRRL692, pH: no adjustment
Description: as §2

[9] = test system: Candida albicans IAM 4888; assay: antibacterial activity by disc method; format: cell-based; details: IAM4888, pH: no adjustment
Description: as §2

[10] = test system: Myrothecium verrucaria IAM 5063; assay: antibacterial activity by disc method; format: cell-based; details: Albifimbria verrucaria, IAM5063, pH: no adjustment
Description: as §2

[11] = test system: Penicillium chrysogenum IAM 7142; assay: antibacterial activity by disc method; format: cell-based; details: IAM7142, pH: no adjustment
Description: as §2

Diplococcus pneumoniae = assay: antibacterial activity by disc method; format: cell-based; details: Streptococcus pneumoniae, pH: no adjustment
Description: as §2

Shigella sonnei E23 = assay: antibacterial activity by disc method; format: cell-based
Description: as §2

[12] = test system: Escherichia coli ATCC 3655; assay: antibacterial activity by disc method; format: cell-based; details: ATCC3655, pH: no adjustment
Description: as §2

[13] = test system: Saccharomyces cerevisiae IAM 4485; assay: antibacterial activity by disc method; format: cell-based; details: IAM4485, pH: no adjustment
Description: as §2

[14] = test system: Staphylococcus aureus FAD 209P; assay: antibacterial activity by disc method; format: cell-based; details: pH: no adjustment
Description: as §2

Irycoderma T-1 ATCC 9645 = assay: antibacterial activity by disc method; format: cell-based
Description: as §2

[15] = test system: Proteus vulgaris HX19 IAM 1025; assay: antibacterial activity by disc method; format: cell-based; details: IAM1025, pH: no adjustment
Description: as §2

[16] = test system: Pseudomonas fluorescens ATCC 27; assay: antibacterial activity by disc method; format: cell-based; details: ATCC27, pH: no adjustment
Description: as §2

[17] = test system: Chaetomium globosum ATCC 6025; assay: antibacterial activity by disc method; format: cell-based; details: ATCC6025, pH: no adjustment
Description: as §2

gypseum IFO 5948 = assay: antibacterial activity by disc method; format: cell-based; details: pH: no adjustment
Description: as §2

[18] = test system: Penicillium chrysogenum Q 176; assay: antibacterial activity by disc method; format: cell-based; details: Q176, pH: no adjustment
Description: as §2

[19] = test system: Serratia marcescens IAM 1022; assay: antibacterial activity by disc method; format: cell-based; details: IAM1022, pH: no adjustment
Description: as §2

[20] = test system: Mucor spinescens IAM 6071; assay: antibacterial activity by disc method; format: cell-based; details: IAM6071, pH: no adjustment
Description: as §2

[21] = test system: Bacillus subtilis PCI 219; assay: antibacterial activity by disc method; format: cell-based; details: PCI219, pH: no adjustment
Description: as §2

[22] = test system: Trycophyton mentagrophytes IAM 5064; assay: antibacterial activity by disc method; format: cell-based; details: pH: no adjustment
Description: as §2

[23] = test system: Pseudomonas aeruginosa IAM 1156; assay: antibacterial activity by disc method; format: cell-based; details: IAM1156, pH: no adjustment
Description: as §2

[24] = test system: Alternaria solani IFO 5924; assay: antibacterial activity by disc method; format: cell-based; details: IFO5924, pH: no adjustment
Description: as §2

Sarcina lutea IAM 1099 = assay: antibacterial activity by disc method; format: cell-based; details: Micrococcus luteus, IAM1099, pH: no adjustment
Description: as §2

[25] = test system: Aspergillus niger IAM 2026; assay: antibacterial activity by disc method; format: cell-based; details: IAM2026, pH: no adjustment
Description: as §2

Bacillus subtilis NA 64 = assay: antibacterial activity by disc method; format: cell-based; details: NA64, pH: no adjustment
Description: as §2

[26] = test system: Dusariium moniliforme IAM 5062; assay: antibacterial activity by disc method; format: cell-based; details: pH: no adjustment
Description: as §2

Salmonella enteritidis = assay: antibacterial activity by disc method; format: cell-based; details: Salmonella enterica, pH: no adjustment
Description: as §2

[27] = test system: Bacillus subtilis IAM 1026; assay: antibacterial activity by disc method; format: cell-based; details: IAM1026, pH: no adjustment
Description: as §2

[28] = test system: Klebsiella pneumoniae 348; assay: antibacterial activity by disc method; format: cell-based; details: pH: no adjustment
Description: as §2

[29] = test system: Escherichia coli IAM 1268; assay: antibacterial activity by disc method; format: cell-based; details: IAM1268, pH: no adjustment
Description: as §2

For O=C(/C=C/c1cc[nH]c1)OC1=C(O)CCC1=O [Compound S551-II-A], the Solubilities (Solubilities) was “soluble in acetone, dimethylsulfoxide and alkaline solution; also recorded: slightly soluble in methanol; also recorded: insoluble in benzene, chloroform ethylether and hexane”, the MIC [1] was 200 µg/mL (≈ 858 µM) and the MIC [2] was 500 µg/mL (≈ 2140 µM). It also gave an MIC [3] of 200 µg/mL (≈ 858 µM), an MIC [4] of 200 µg/mL (≈ 858 µM) and an MIC [5] of 25 µg/mL (≈ 107 µM).

CC(=O)OC1CC(/C=C/C(=O)OC2=C(O)CCC2=O)=CN1 (centres unmarked) [Compound S551-II] gave an MIC (Saccharomyces rouxii M-9) of 100 µg/mL (≈ 341 µM), an MIC [6] of 1000 µg/mL (≈ 3410 µM) and an MIC [7] of 31.2 µg/mL (≈ 106 µM). The MIC [8] was 62.5 µg/mL (≈ 213 µM), the MIC [9] was greater than 1000 µg/mL and the MIC [10] was 125 µg/mL (≈ 426 µM). It also gave an MIC [11] of 125 µg/mL (≈ 426 µM), an MIC (Diplococcus pneumoniae) of 1000 µg/mL (≈ 3410 µM) and an MIC (Shigella sonnei E23) greater than 100 µg/mL. It also gave an MIC [12] of 500 µg/mL (≈ 1700 µM), an MIC [13] of 1000 µg/mL (≈ 3410 µM) and an MIC [14] of 62.5 µg/mL (≈ 213 µM). The MIC (Irycoderma T-1 ATCC 9645) was 16 µg/mL (≈ 54.6 µM), the MIC [15] was greater than 1000 µg/mL and the MIC [16] was greater than 1000 µg/mL. It also gave an MIC [17] of 500 µg/mL (≈ 1700 µM), an MIC (gypseum IFO 5948) of 125 µg/mL (≈ 426 µM) and an MIC [18] of 62.5 µg/mL (≈ 213 µM). It also gave an MIC [19] greater than 1000 µg/mL, an MIC [20] of 500 µg/mL (≈ 1700 µM) and an MIC [21] of 62.5 µg/mL (≈ 213 µM). It also gave an MIC [22] of 4 µg/mL (≈ 13.6 µM), an MIC [23] greater than 1000 µg/mL and an MIC [24] of 8 µg/mL (≈ 27.3 µM). It also gave an MIC (Sarcina lutea IAM 1099) of 125 µg/mL (≈ 426 µM), an MIC [25] of 250 µg/mL (≈ 852 µM) and an MIC (Bacillus subtilis NA 64) of 62.5 µg/mL (≈ 213 µM). For the same compound, the MIC [26] was 125 µg/mL (≈ 426 µM), the MIC (Salmonella enteritidis) was greater than 1000 µg/mL and the MIC [27] was 31.2 µg/mL (≈ 106 µM). It also gave an MIC [28] greater than 1000 µg/mL and an MIC [29] of 1000 µg/mL (≈ 3410 µM).

— US4180436A, “Antibacterial compounds and process for production thereof” (Kyowa Hakko Kogyo Co., Ltd., priority 1977, dated 1979)
